The results in this text go back to paper PMC6385203, “Mutations in the palm domain disrupt modulation of acid-sensing ion channel 1a currents by neuropeptides” (Scientific Reports, 2019).

As a reminder, the koff is the rate constant with which the complex falls apart.

Structures are written as SMILES. Peptide text beside a SMILES is read from it.

The assay concerns the target T1, ASIC1a N416C (Homo sapiens, UniProt P78348, N416C).
T1 construct: expressed in transfected cells; host or cells: Xenopus laevis oocytes injected with cRNA
T1 sequence (P78348 1-528 N416C): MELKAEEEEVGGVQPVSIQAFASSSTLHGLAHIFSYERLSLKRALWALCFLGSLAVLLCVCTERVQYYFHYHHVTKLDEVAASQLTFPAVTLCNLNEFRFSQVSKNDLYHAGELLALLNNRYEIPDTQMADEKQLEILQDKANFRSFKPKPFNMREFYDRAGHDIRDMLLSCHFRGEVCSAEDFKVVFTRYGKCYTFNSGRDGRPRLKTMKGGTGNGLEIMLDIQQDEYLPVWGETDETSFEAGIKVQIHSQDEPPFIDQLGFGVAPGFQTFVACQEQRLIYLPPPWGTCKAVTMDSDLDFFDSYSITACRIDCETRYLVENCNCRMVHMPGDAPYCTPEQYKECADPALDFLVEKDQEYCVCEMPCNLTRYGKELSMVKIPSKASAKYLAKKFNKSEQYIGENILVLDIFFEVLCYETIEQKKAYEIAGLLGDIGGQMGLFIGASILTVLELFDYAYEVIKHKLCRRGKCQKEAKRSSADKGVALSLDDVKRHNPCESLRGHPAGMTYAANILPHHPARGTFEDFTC
In words: Disappearance of FRRFa-induced Isust on washout, N416C. It is filed as cell-based. The conditions noted are these: washout after 50 μM FRRFa 45 s, n = 9. The procedure:
Figure 6 Mutations of the palm change FRRFa modulation of ASIC1a. Mutants containing “-ET” in their name had been exposed during 3 min to 1 mM MTSET prior to the experiment. (a) Representative current traces of the mutant E418C in the absence and presence of 50 μM FRRFa. (b) Bar graph of the Isust/Ipeak ratio induced by pH5 of WT and mutants as indicated (n = 5–41). For (b,g–i) *p < 0.05; **p < 0.01, ***p < 0.001, ****p < 0.0001, different from WT. (c) Ratio of 50 μM FRRFa-induced increase in Isust/Ipeak (n = 5–41). (d) Ratio of 500 μM FRRFa-induced increase in Isust/Ipeak (n = 5–11). For (b–d) ^#p < 0.05; ^##p < 0.01; ^###p < 0.001; ^####p < 0.0001; ratio different from the ratio in WT. (e) FRRFa concentration-response curve of the Isust/Ipeak current ratio induced by pH5 in oocytes expressing N416C, n = 8. The WT curve is shown for comparison (n = 7–11). (f) Time course of disappearance of the FRRFa-induced sustained current in the N416C mutant and in WT. 50 μM FRRFa was applied for 45 s, and then washed out. […]
Electrophysiological measurements were performed 1–2 days after cRNA injection. Ion currents were recorded using two-electrode voltage-clamp at a holding potential of −60 mV with a Dagan TEV-200 amplifier (Minneapolis, MN). […] The amplitude of the sustained current was measured in the last two seconds of the pH5 perfusion. […]

In the case of `N=C(N)NCCC[C@H](NC(=O)[C@H](CCCNC(=N)N)NC(=O)[C@@H](N)Cc1ccccc1)C(=O)N[C@@H](Cc1ccccc1)C(N)=O` [FRRFa, Phe-Arg-Arg-Phe-amide] (H-FRRF-NH2), the koff was 0.027 ± 0.003 s⁻¹.
